Measured values published in DBAASP.
In brackets after ≈: the same amount, converted by molar mass.

Legend:
Test in all cases: ≥ marks a high value that may be exact or a test limit, other limits are often not marked, values filed in µg/mL are converted to µM
[1] = test system: Enterococcus faecalis ATCC 29212
[2] = test system: Escherichia coli ATCC 25922
[3] = test system: Staphylococcus aureus ATCC 25923
[4] = test system: Klebsiella pneumoniae ATCC 13883
[5] = test system: Enterococcus casseliflavus ATCC 700327
[6] = test system: Staphylococcus epidermidis ATCC 12228
[7] = test system: Pseudomonas aeruginosa ATCC 27853
Klebsiella pneumoniae = test system: Klebsiella pneumoniae
[8] = test system: Pseudomonas aeruginosa H103
Escherichia coli O111:B4 = test system: Escherichia coli O111:B4
[9] = test system: Staphylococcus epidermidis
Enterococcus faecalis = test system: Enterococcus faecalis
Bacillus subtilis = test system: Bacillus subtilis
[10] = test system: Staphylococcus aureus SAP 0017
[11] = test system: Staphylococcus aureus K147
[12] = test system: Salmonella typhimurium C610
[13] = test system: Escherichia coli NBRC 3972
[14] = test system: Aspergillus oryzae NBRC 100959
[15] = test system: Micrococcus luteus NBRC 3333
[16] = test system: Candida viswanathii NBRC 10321
[17] = test system: Staphylococcus epidermidis NBRC 12993
[18] = test system: Staphylococcus epidermidis C621
[19] = test system: Streptococcus pyogenes ATCC 19615
[20] = test system: Pseudomonas aeruginosa K799
[21] = test system: Streptococcus pneumoniae ATCC 49619
Streptococcus mitis = test system: Streptococcus mitis
Escherichia coli UB1005 = test system: Escherichia coli UB1005
Corynebacterium xerosis = test system: Corynebacterium xerosis
[22] = test system: Salmonella enterica subsp. enterica serovar Typhimurium ATCC 14028s
Listeria monocytogenes = test system: Listeria monocytogenes

CC[C@H](C)[C@H](NC(=O)[C@@H](N)Cc1ccccc1)C(=O)NCC(=O)N[C@H](C(=O)N[C@@H](CC(C)C)C(=O)N[C@H](C(=O)N1CCC[C@H]1C(=O)N[C@@H](CC(C)C)C(=O)N[C@@H](C)C(=O)N[C@@H](CC(C)C)C(=O)NCC(=O)N[C@@H](C)C(=O)N[C@@H](CC(C)C)C(=O)N[C@H](C(=O)N[C@@H](CCCCN)C(=O)N[C@@H](CC(C)C)C(=O)N[C@@H](Cc1ccccc1)C(=O)N[C@@H](CCCCN)C(N)=O)[C@@H](C)O)[C@@H](C)CC)[C@@H](C)O [FIGTLIPLALGALTKLFK]
MIC [1]: 8 µM (≈ 15.3 µg/mL)
MIC [2]: 16 µM (≈ 30.6 µg/mL)
MIC [3]: 4 µM (≈ 7.66 µg/mL)
MIC [4]: 4 µM (≈ 7.66 µg/mL)
MIC [5]: 16 µM (≈ 30.6 µg/mL)
MIC [6]: 2 µM (≈ 3.83 µg/mL)

CC[C@H](C)[C@H](NC(=O)[C@H](C)NC(=O)CNC(=O)[C@H](CC(C)C)NC(=O)[C@@H](N)Cc1ccccc1)C(=O)N[C@@H](CC(C)C)C(=O)N[C@@H](CCCCN)C(=O)N[C@H](C(=O)NCC(=O)N[C@@H](Cc1cnc[nH]1)C(=O)N[C@@H](C)C(=O)N[C@@H](CC(C)C)C(=O)N[C@@H](C)C(=O)N[C@@H](CCCCN)C(=O)N[C@H](C(=O)N[C@H](C(=O)N[C@@H](CC(C)C)C(=O)N1CCC[C@H]1C(=O)N[C@@H](CCSC)C(=O)N[C@H](C(=O)N[C@H](C(=O)N[C@@H](CC(N)=O)C(=O)N[C@@H](C)C(=O)N[C@@H](Cc1ccccc1)C(=O)N[C@@H](CCCCN)C(=O)N1CCC[C@H]1C(=O)N[C@@H](CCCCN)C(=O)N[C@@H](CCC(N)=O)C(=O)O)[C@@H](C)O)C(C)C)C(C)C)[C@@H](C)O)[C@@H](C)CC [FLGAILKIGHALAKTVLPMVTNAFKPKQ]
MIC [1]: 8 µM (≈ 24.1 µg/mL)
MIC [7]: 32 µM (≈ 96.2 µg/mL)
MIC [2]: 8 µM (≈ 24.1 µg/mL)
MIC [3]: 8 µM (≈ 24.1 µg/mL)
MIC [4]: 8 µM (≈ 24.1 µg/mL)
MIC (Klebsiella pneumoniae): 16 µM (≈ 48.1 µg/mL)
MIC [5]: 4 µM (≈ 12 µg/mL)
MIC [6]: 4 µM (≈ 12 µg/mL)

CC[C@H](C)[C@H](NC(=O)[C@H](CC(C)C)NC(=O)[C@H](C)NC(=O)[C@@H]1CCCN1C(=O)[C@H](CC(C)C)NC(=O)CNC(=O)[C@@H](NC(=O)[C@@H](NC(=O)[C@H](CC(C)C)NC(=O)[C@@H](NC(=O)[C@@H](NC(=O)[C@H](CC(C)C)NC(=O)[C@@H](NC(=O)[C@H](C)NC(=O)CNC(=O)[C@@H](NC(=O)CNC(=O)[C@H](CCCCN)NC(=O)[C@H](CCCCN)NC(=O)[C@H](CCCCN)NC(=O)[C@H](Cc1ccccc1)NC(=O)[C@H](CC(C)C)NC(=O)[C@H](CCCCN)NC(=O)[C@H](Cc1c[nH]c2ccccc12)NC(=O)[C@@H](N)CCCCN)[C@@H](C)O)C(C)C)[C@@H](C)O)C(C)C)[C@@H](C)O)[C@@H](C)O)C(=O)N[C@@H](CO)C(=O)O [KWKLFKKKGTGAVLTVLTTGLPALIS]
MIC [8]: 5.77 µM (≈ 16 µg/mL)
MIC (Escherichia coli O111:B4): 2.89 µM (≈ 8 µg/mL)
MIC [9]: 5.77 µM (≈ 16 µg/mL)
MIC (Enterococcus faecalis): ≥ 46.2 µM
MIC (Bacillus subtilis): 5.77 µM (≈ 16 µg/mL)
MIC [10]: 11.5 µM (≈ 32 µg/mL)
MIC [11]: 11.5 µM (≈ 32 µg/mL)
MIC [12]: 2.89 µM (≈ 8 µg/mL)

CC[C@H](C)[C@H](NC(=O)[C@H](CC(C)C)NC(=O)[C@H](C)NC(=O)[C@@H]1CCCN1C(=O)[C@H](CC(C)C)NC(=O)[C@H](C)NC(=O)[C@@H](NC(=O)[C@@H](NC(=O)[C@@H](NC(=O)[C@@H](NC(=O)[C@H](CCCCN)NC(=O)[C@H](CCCCN)NC(=O)[C@H](CC(C)C)NC(=O)[C@@H](NC(=O)[C@H](CCCCN)NC(=O)[C@@H](NC(=O)[C@H](CC(C)C)NC(=O)[C@H](CC(N)=O)NC(=O)[C@H](CCCCN)NC(=O)[C@@H](NC(=O)[C@H](Cc1ccccc1)NC(=O)[C@H](CO)NC(=O)[C@H](CCCCN)NC(=O)[C@H](Cc1c[nH]c2ccccc12)NC(=O)[C@@H](N)CCCCN)[C@@H](C)CC)[C@@H](C)O)C(C)C)C(C)C)C(C)C)[C@@H](C)O)[C@@H](C)O)C(=O)N[C@@H](CO)C(=O)O [KWKSFIKNLTKVLKKVVTTALPALIS]
MIC [8]: 5.47 µM (≈ 16 µg/mL)
MIC (Escherichia coli O111:B4): 2.73 µM (≈ 8 µg/mL)
MIC [9]: 5.47 µM (≈ 16 µg/mL)
MIC (Enterococcus faecalis): 21.9 µM (≈ 64 µg/mL)
MIC (Bacillus subtilis): 2.73 µM (≈ 8 µg/mL)
MIC [10]: 2.73 µM (≈ 8 µg/mL)
MIC [11]: 5.47 µM (≈ 16 µg/mL)
MIC [12]: 2.73 µM (≈ 8 µg/mL)

CC[C@H](C)[C@H](NC(=O)[C@H](CCCCN)NC(=O)[C@@H](N)CCCN=C(N)N)C(=O)N[C@@H](CCCCN)C(=O)N[C@@H](CCCN=C(N)N)C(=O)N[C@@H](Cc1ccc(O)cc1)C(=O)N[C@@H](CC(C)C)C(=O)N[C@@H](CCCN=C(N)N)C(=O)N[C@@H](CCCN=C(N)N)C(=O)N[C@@H](CCSC)C(=O)N[C@H](C(=O)N[C@H](C(=O)N[C@@H](Cc1c[nH]c2ccccc12)C(=O)O)[C@@H](C)CC)[C@@H](C)CC [RKIKRYLRRMIIW]
MIC [13]: ≥ 218 µM
MIC [14]: 13.6 µM (≈ 25 µg/mL)
MIC [15]: 13.6 µM (≈ 25 µg/mL)
MIC [16]: 27.3 µM (≈ 50 µg/mL)
MIC [17]: 13.6 µM (≈ 25 µg/mL)

CC[C@H](C)[C@H](NC(=O)[C@H](CCCN=C(N)N)NC(=O)[C@H](CS)NC(=O)[C@H](CC(C)C)NC(=O)[C@@H](N)CCCN=C(N)N)C(=O)N[C@H](C(=O)N1CCC[C@H]1C(=O)N[C@H](C(=O)N[C@H](C(=O)N[C@@H](CCCN=C(N)N)C(=O)N[C@H](C(=O)N[C@@H](CS)C(=O)N[C@@H](CCCN=C(N)N)C(=O)O)C(C)C)[C@@H](C)CC)C(C)C)C(C)C [RLCRIVPVIRVCR]
MIC [18]: 10.1 µM (≈ 16 µg/mL)
MIC [19]: 20.2 µM (≈ 32 µg/mL)
MIC [20]: 20.2 µM (≈ 32 µg/mL)
MIC [21]: ≥ 40.4 µM
MIC [1]: 20.2 µM (≈ 32 µg/mL)
MIC (Streptococcus mitis): 1.26 µM (≈ 2 µg/mL)
MIC [3]: > 40.4 µM
MIC (Escherichia coli UB1005): 10.1 µM (≈ 16 µg/mL)
MIC (Corynebacterium xerosis): 1.26 µM (≈ 2 µg/mL)
MIC [22]: ≥ 40.4 µM
MIC (Listeria monocytogenes): 2.53 µM (≈ 4 µg/mL)

CC[C@H](C)[C@H](NC(=O)[C@H](CCCN=C(N)N)NC(=O)[C@H](CO)NC(=O)[C@H](CC(C)C)NC(=O)[C@@H](N)CCCN=C(N)N)C(=O)N[C@H](C(=O)N[C@H](C(=O)N[C@H](C(=O)N[C@@H](CCCN=C(N)N)C(=O)N[C@H](C(=O)N[C@@H](CS)C(=O)N[C@@H](CCCN=C(N)N)C(N)=O)C(C)C)[C@@H](C)CC)C(C)C)C(C)C [RLSRIVVIRVCR]
MIC [18]: 1.36 µM (≈ 2 µg/mL)
MIC [19]: 5.44 µM (≈ 7.99 µg/mL)
MIC [20]: 10.9 µM (≈ 16 µg/mL)
MIC [21]: 5.44 µM (≈ 7.99 µg/mL)
MIC [1]: 10.9 µM (≈ 16 µg/mL)
MIC (Streptococcus mitis): 0.34 µM (≈ 0.5 µg/mL)
MIC [3]: 10.9 µM (≈ 16 µg/mL)
MIC (Escherichia coli UB1005): 2.72 µM (≈ 4 µg/mL)
MIC (Corynebacterium xerosis): 0.34 µM (≈ 0.5 µg/mL)
MIC [22]: ≥ 43.5 µM
MIC (Listeria monocytogenes): 0.34 µM (≈ 0.5 µg/mL)
